Patent US11453683B1, “KRas G12D inhibitors” (Mirati Therapeutics, Inc., priority 2019, dated 2022)

Test system: KRas G12D-mediated phosphorylation of ERK
Test: Inhibition of KRas G12D-mediated phosphorylation of ERK in AGS cells
Format: cell-based
Settings: Homo sapiens; AGS cells expressing G12D, 3 hours, phospho-ERK normalized to GAPDH
Method in brief: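 In-cell Western: p-ERK Thr202/Tyr204 signal over GAPDH, as % of DMSO control, with IC50 from a 4-parameter curve. AGS cells seeded 40,000/well for 12-14 h, exposed to compound 3 h at 0.5% DMSO final, then formaldehyde-fixed and methanol-permeabilized.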

Row | SMILES | IC50 [nM]
1 | Fc1c(-c2cccc3cccc(Br)c23)ncc2c(N3C[C@H]4CC[C@@H](C3)N4)nc(OCC34CCCN3CCC4)nc12 [Example 235, 4-((1R,5S)-3,8-diazabicyclo[3.2.1]octan-3-yl)-7-(8-bromonaphthalen-1-yl)-8-fluoro-2-((tetrahydro-1H-pyrrolizin-7a(5H)-yl)methoxy)pyrido[4,3-d]pyrimidine] | 339
2 | CN1CC(COc2nc(N3C[C@H]4CC[C@@H](C3)N4)c3cnc(-c4cccc5cccc(Cl)c45)c(F)c3n2)CC1=O (stereo partly drawn) [Example 131, 4-(((4-((1R,5S)-3,8-diazabicyclo[3.2.1]octan-3-yl)-7-(8-chloronaphthalen-1-yl)-8-fluoropyrido[4,3-d]pyrimidin-2-yl)oxy)methyl)-1-methylpyrrolidin-2-one] | > 16700
3 | CSc1cccc2cccc(-c3ncc4c(N5C[C@H]6CC[C@@H](C5)N6)nc(OCC56CCCN5CCC6)nc4c3F)c12 [Example 199, 4-((1R,5S)-3,8-diazabicyclo[3.2.1]octan-3-yl)-8-fluoro-7-(8-(methylthio)naphthalen-1-yl)-2-((tetrahydro-1H-pyrrolizin-7a(5H)-yl)methoxy)pyrido[4,3-d]pyrimidine] | 465
4 | O[C@@H]1C[C@@H]2CN(c3nc(OCCc4ccc(F)cn4)nc4c(F)c(-c5cccc6cccc(Cl)c56)ncc34)C[C@H]1N2 [Example 32, (1R,5R,6R)-3-(7-(8-chloronaphthalen-1-yl)-8-fluoro-2-(2-(5-fluoropyridin-2-yl)ethoxy)pyrido[4,3-d]pyrimidin-4-yl)-3,8-diazabicyclo[3.2.1]octan-6-ol] | > 50000
5 | C#Cc1c(F)ccc2cccc(-c3ncc4c(N5C[C@H]6CC[C@@H](C5)N6)nc(OC[C@@]56CCCN5C[C@H](F)C6)nc4c3F)c12 [Example 281, 4-((1R,5S)-3,8-diazabicyclo[3.2.1]octan-3-yl)-7-(8-ethynyl-7-fluoronaphthalen-1-yl)-8-fluoro-2-(((2R,7aS)-2-fluorohexahydro-1H-pyrrolizin-7a-yl)methoxy)pyrido[4,3-d]pyrimidine] | 97.8
6 | OCC#Cc1cccc2cccc(-c3ncc4c(N5C[C@H]6CC[C@@H](C5)N6)nc(OCC56CCCN5CCC6)nc4c3F)c12 [Example 193, 3-(8-(4-((1R,5S)-3,8-diazabicyclo[3.2.1]octan-3-yl)-8-fluoro-2-((tetrahydro-1H-pyrrolizin-7a(5H)-yl)methoxy)pyrido[4,3-d]pyrimidin-7-yl)naphthalen-1-yl)prop-2-yn-1-ol] | 8520
7 | Oc1cc(-c2ncc3c(N4CC5CCC(C4)N5)nc(OCC45CCCN4C[C@H](F)C5)nc3c2F)c2c(Cl)cccc2c1 (mixture of isomers) [Example 330, 4-(4-((1R,5S)-3,8-diazabicyclo[3.2.1]octan-3-yl)-8-fluoro-2-((2-fluorotetrahydro-1H-pyrrolizin-7a(5H)-yl)methoxy)pyrido[4,3-d]pyrimidin-7-yl)-5-chloronaphthalen-2-ol] | 11.8
8 | COC(c1ccc(O)cc1-c1ncc2c(N3CC4CCC(C3)N4)nc(OC[C@@]34CCCN3C[C@H](F)C4)nc2c1F)C(F)(F)F (stereo in doubt) [Example 390, 3-(4-((1R,5S)-3,8-diazabicyclo[3.2.1]octan-3-yl)-8-fluoro-2-((2-fluorotetrahydro-1H-pyrrolizin-7a(5H)-yl)methoxy)pyrido[4,3-d]pyrimidin-7-yl)-4-(2,2,2-trifluoro-1-methoxyethyl)phenol] | 6110
9 | CCO[C@@H]1C[C@@H](COc2nc(N3C[C@H]4CC[C@@H](C3)N4)c3cnc(-c4cccc5cccc(Cl)c45)c(F)c3n2)N(C)C1 [Example 43, 4-((1R,5S)-3,8-diazabicyclo[3.2.1]octan-3-yl)-7-(8-chloronaphthalen-1-yl)-2-(((2S,4R)-4-ethoxy-1-methylpyrrolidin-2-yl)methoxy)-8-fluoropyrido[4,3-d]pyrimidine] | 6200
10 | CCN1CCC[C@H]1COc1nc(N2C[C@H]3CC[C@@H](C2)N3)c2cnc(-c3cc(O)cc4ccccc34)c(F)c2n1 [Example 11, 4-(4-((1R,5S)-3,8-diazabicyclo[3.2.1]octan-3-yl)-2-(((S)-1-ethylpyrrolidin-2-yl)methoxy)-8-fluoropyrido[4,3-d]pyrimidin-7-yl)naphthalen-2-ol] | 1080
11 | O=S1(=O)CCC(Oc2nc(N3C[C@H]4CC[C@@H](C3)N4)c3cnc(-c4cc(O)cc5ccccc45)c(F)c3n2)CC1 [Example 71, 4-((4-((1R,5S)-3,8-diazabicyclo[3.2.1]octan-3-yl)-8-fluoro-7-(3-hydroxynaphthalen-1-yl)pyrido[4,3-d]pyrimidin-2-yl)oxy)tetrahydro-2H-thiopyran 1,1-dioxide] | > 16700
12 | Fc1c(-c2cccc3cccc(Cl)c23)ncc2c(N3CC4CC(F)C(C3)N4)nc(OC[C@@]34CCCN3C[C@H](F)C4)nc12 (stereo partly drawn) [Example 396, 7-(8-chloronaphthalen-1-yl)-8-fluoro-4-(6-fluoro-3,8-diazabicyclo[3.2.1]octan-3-yl)-2-((2-fluorotetrahydro-1H-pyrrolizin-7a(5H)-yl)methoxy)pyrido[4,3-d]pyrimidine] | 8170
13 | COC(=O)NC[C@H]1CC[C@@]2(COc3nc(N4CC5CCC(C4)N5)c4cnc(-c5cccc6cccc(Cl)c56)c(F)c4n3)CCCN12 [Example 411, methyl ((7a-(((4-(3,8-diazabicyclo[3.2.1]octan-3-yl)-7-(8-chloronaphthalen-1-yl)-8-fluoropyrido[4,3-d]pyrimidin-2-yl)oxy)methyl)hexahydro-1H-pyrrolizin-3-yl)methyl)carbamate] | 745
14 | CC(C)c1ccc(O)cc1-c1ncc2c(N3C[C@H]4CC[C@@H](C3)N4)nc(OCC34CCCN3CCC4)nc2c1F [Example 403, 3-(4-((1R,5S)-3,8-diazabicyclo[3.2.1]octan-3-yl)-8-fluoro-2-((tetrahydro-1H-pyrrolizin-7a(5H)-yl)methoxy)pyrido[4,3-d]pyrimidin-7-yl)-4-isopropylphenol] | 2880
15 | c1ccc2c(-c3cc4nc(OCC56CCCN5CCC6)nc(N5C[C@H]6CC[C@@H](C5)N6)c4cn3)cccc2c1 [Example 233, 4-((1R,5S)-3,8-diazabicyclo[3.2.1]octan-3-yl)-7-(naphthalen-1-yl)-2-((tetrahydro-1H-pyrrolizin-7a(5H)-yl)methoxy)pyrido[4,3-d]pyrimidine] | 15600
16 | Fc1c(-c2cccc3cccc(Cl)c23)ncc2c(N3C[C@H]4CC[C@@H](C3)N4)nc(OCCCN3C[C@@H]4C[C@H]3CO4)nc12 [Example 103, (1S,4S)-5-(3-((4-((1R,5S)-3,8-diazabicyclo[3.2.1]octan-3-yl)-7-(8-chloronaphthalen-1-yl)-8-fluoropyrido[4,3-d]pyrimidin-2-yl)oxy)propyl)-2-oxa-5-azabicyclo[2.2.1]heptane] | > 16700
17 | Fc1c(-c2cccc(Cl)c2C(F)(F)F)ncc2c(N3C[C@H]4CC[C@@H](C3)N4)nc(OCC34CCCN3CCC4)nc12 [Example 328, 4-((1R,5S)-3,8-diazabicyclo[3.2.1]octan-3-yl)-7-(3-chloro-2-(trifluoromethyl)phenyl)-8-fluoro-2-((tetrahydro-1H-pyrrolizin-7a(5H)-yl)methoxy)pyrido[4,3-d]pyrimidine] | 897
18 | Fc1c(-c2c(OC(F)(F)F)ccc3[nH]ncc23)ncc2c(N3C[C@H]4CC[C@@H](C3)N4)nc(OCC34CCCN3CCC4)nc12 [Example 258, 4-((1R,5S)-3,8-diazabicyclo[3.2.1]octan-3-yl)-8-fluoro-2-((hexahydro-1H-pyrrolizin-7a-yl)methoxy)-7-(5-(trifluoromethoxy)-1H-indazol-4-yl)pyrido[4,3-d]pyrimidine] | 1460
19 | CN1C[C@H](C(F)(F)F)C[C@H]1COc1nc(N2C[C@H]3CC[C@@H](C2)N3)c2cnc(-c3cc(O)cc4ccccc34)c(F)c2n1 [Example 28, 4-(4-((1R,5S)-3,8-diazabicyclo[3.2.1]octan-3-yl)-8-fluoro-2-(((2S,4R)-1-methyl-4-(trifluoromethyl)pyrrolidin-2-yl)methoxy)pyrido[4,3-d]pyrimidin-7-yl)naphthalen-2-ol] | 11700
20 | CC(C)c1ccc(O)cc1-c1ncc2c(N3CC4CCC(C3)N4)nc(OC[C@@]34CCCN3C[C@H](F)C4)nc2c1F (stereo in doubt) [Example 399, 3-(4-((1R,5S)-3,8-diazabicyclo[3.2.1]octan-3-yl)-8-fluoro-2-((2-fluorotetrahydro-1H-pyrrolizin-7a(5H)-yl)methoxy)pyrido[4,3-d]pyrimidin-7-yl)-4-isopropylphenol] | 510
21 | C#Cc1cccc2cc(OC)cc(-c3ncc4c(N5C[C@H]6CC[C@@H](C5)N6)nc(OCC56CCCN5CCC6)nc4c3F)c12 [Example 231, 4-((1R,5S)-3,8-diazabicyclo[3.2.1]octan-3-yl)-7-(8-ethynyl-3-methoxynaphthalen-1-yl)-8-fluoro-2-((hexahydro-1H-pyrrolizin-7a-yl)methoxy)pyrido[4,3-d]pyrimidine] | 2810
22 | Fc1c(-c2ccccc2C(F)(F)F)ncc2c(N3C[C@H]4CC[C@@H](C3)N4)nc(OCC34CCCN3CCC4)nc12 [Example 370, 4-((1R,5S)-3,8-diazabicyclo[3.2.1]octan-3-yl)-8-fluoro-2-((tetrahydro-1H-pyrrolizin-7a(5H)-yl)methoxy)-7-(2-(trifluoromethyl)phenyl)pyrido[4,3-d]pyrimidine] | 10700
23 | N#CC[C@@H]1C[C@@H]2CN(c3nc(OCC45CCCN4CCC5)nc4c(F)c(-c5cc(O)cc6ccccc56)ncc34)C[C@H]1N2 [Example 338, 2-((1R,5S,6S)-3-(8-fluoro-7-(3-hydroxynaphthalen-1-yl)-2-((tetrahydro-1H-pyrrolizin-7a(5H)-yl)methoxy)pyrido[4,3-d]pyrimidin-4-yl)-3,8-diazabicyclo[3.2.1]octan-6-yl)acetonitrile] | > 16700
24 | Fc1c(-c2cccc(Cl)c2C2CC2)ncc2c(N3C[C@H]4CC[C@@H](C3)N4)nc(OCC34CCCN3CCC4)nc12 [Example 322, 4-((1R,5S)-3,8-diazabicyclo[3.2.1]octan-3-yl)-7-(3-chloro-2-cyclopropylphenyl)-8-fluoro-2-((tetrahydro-1H-pyrrolizin-7a(5H)-yl)methoxy)pyrido[4,3-d]pyrimidine] | 665
